{"source": "paper PMC13421293", "about": "(Thrombosis and Haemostasis, 2025)", "key": {"[1]": {"test_system": "platelet reactivity", "test": "Platelet reactivity by multiple electrode aggregometry (Multiplate) in unstable angina patients"}, "[2]": {"test_system": "canine platelet", "set-up": "method as in PMID 5554584", "settings": "commonly used concentrations; cited from earlier work"}, "[3]": {"test": "Concentrations of ticagrelor and active metabolite AR-C124910XX by LC-MS in unstable angina patients", "settings": "for AUC: AUC TPC, total exposure to ticagrelor, area under the ticagrelor plasma concentration curve, 0–360 min; for concentration at 15 min: 15 min post ticagrelor LD 180 mg; for concentration at 30 min: 30 min post ticagrelor LD 180 mg; for concentration at 45 min: 45 min post ticagrelor LD 180 mg; for concentration at 60 min: 60 min post ticagrelor LD 180 mg; for concentration at 120 min: 120 min post ticagrelor LD 180 mg; for concentration at 240 min: 240 min post ticagrelor LD 180 mg; for concentration at 360 min: 360 min post ticagrelor LD 180 mg"}, "[4]": {"settings": "15 min post ticagrelor LD 180 mg, MEA"}, "[5]": {"settings": "30 min post ticagrelor LD 180 mg, MEA"}, "[6]": {"settings": "45 min post ticagrelor LD 180 mg, MEA"}, "[7]": {"settings": "60 min post ticagrelor LD 180 mg, MEA"}, "[8]": {"settings": "120 min post ticagrelor LD 180 mg, MEA"}, "[9]": {"settings": "180 min post ticagrelor LD 180 mg, MEA"}, "[10]": {"settings": "240 min post ticagrelor LD 180 mg, MEA"}, "[11]": {"settings": "time to reach low platelet reactivity after ticagrelor LD, MEA"}, "[12]": {"settings": "0–360 min post ticagrelor LD 180 mg"}, "[13]": {"settings": "human, plasma, oral, 180 mg, Ticagrelor plasma concentration, Mean ± SD"}, "[14]": {"settings": "human, plasma, oral, 180 mg, Ticagrelor plasma concentration, Median (Q1–Q3)"}}, "data": [{"molecule": "COC(F)(F)C(Cl)Cl", "note": "[methoxyflurane]", "values": [{"measurement": "effect on platelet reactivity", "setting": "[1]; methoxyflurane added to ticagrelor LD vs ticagrelor alone, MEA AUC", "result": "inhibitory effect"}, {"measurement": "ADP-induced canine platelet aggregation", "setting": "[2]", "result": "significant reduction"}]}, {"molecule": "FC(F)(F)C(Cl)Br", "note": "(stereo not drawn) [halothane]", "values": [{"measurement": "ADP-induced canine platelet aggregation", "setting": "[2]", "result": "significant reduction"}]}, {"molecule": "[N-]=[N+]=O", "note": "[nitrous oxide]", "values": [{"measurement": "ADP-induced canine platelet aggregation", "setting": "[2]", "result": "significant reduction"}]}, {"molecule": "CCCSc1nc(N[C@@H]2C[C@H]2c2ccc(F)c(F)c2)c2nnn([C@@H]3C[C@H](OCCO)[C@@H](O)[C@H]3O)c2n1", "note": "[Ticagrelor, ticagrelor]", "values": [{"measurement": "AUC 15 (platelet reactivity), Mean ± SD", "setting": "[1]; [4]", "result": "66.08 ± 26.54", "unit": "U"}, {"measurement": "AUC 15 (platelet reactivity), Median (Q1–Q3)", "setting": "[1]; [4]", "result": "66 (48–87) U"}, {"measurement": "AUC 30 (platelet reactivity), Mean ± SD", "setting": "[1]; [5]", "result": "47.76 ± 27.79", "unit": "U"}, {"measurement": "AUC 30 (platelet reactivity), Median (Q1–Q3)", "setting": "[1]; [5]", "result": "36 (27–66) U"}, {"measurement": "AUC 45 (platelet reactivity), Mean ± SD", "setting": "[1]; [6]", "result": "34.56 ± 22.95", "unit": "U"}, {"measurement": "AUC 45 (platelet reactivity), Median (Q1–Q3)", "setting": "[1]; [6]", "result": "28 (17–36) U"}, {"measurement": "AUC 60 (platelet reactivity), Mean ± SD", "setting": "[1]; [7]", "result": "26.64 ± 17.75", "unit": "U"}, {"measurement": "AUC 60 (platelet reactivity), Median (Q1–Q3)", "setting": "[1]; [7]", "result": "26 (16–32) U"}, {"measurement": "AUC 120 (platelet reactivity), Mean ± SD", "setting": "[1]; [8]", "result": "21.6 ± 13.37", "unit": "U"}, {"measurement": "AUC 120 (platelet reactivity), Median (Q1–Q3)", "setting": "[1]; [8]", "result": "21 (17–25) U"}, {"measurement": "AUC 180 (platelet reactivity), Mean ± SD", "setting": "[1]; [9]", "result": "21.32 ± 12.03", "unit": "U"}, {"measurement": "AUC 180 (platelet reactivity), Median (Q1–Q3)", "setting": "[1]; [9]", "result": "22 (13–28) U"}, {"measurement": "AUC 240 (platelet reactivity), Mean ± SD", "setting": "[1]; [10]", "result": "23.76 ± 16.86", "unit": "U"}, {"measurement": "AUC 240 (platelet reactivity), Median (Q1–Q3)", "setting": "[1]; [10]", "result": "22 (17–26) U"}, {"measurement": "AUC 360 (platelet reactivity), Median (Q1–Q3)", "setting": "[1]; 360 min post ticagrelor LD 180 mg, MEA", "result": "19 (12–25) U"}, {"measurement": "AUC 0 (platelet reactivity), Median (Q1–Q3)", "setting": "[1]; baseline, MEA, UA patients", "result": "73 (54–95) U"}, {"measurement": "AUC 0 (platelet reactivity, area under the aggregation curve), Mean ± SD", "setting": "[1]; baseline, MEA, UA patients", "result": "76.36 ± 21.82", "unit": "U"}, {"measurement": "Time to AUC < 46 U, Mean ± SD", "setting": "[1]; [11]", "result": "43.8 ± 46.42"}, {"measurement": "Time to AUC < 46 U, Median (Q1–Q3)", "setting": "[1]; [11]", "result": "30 (30–45)"}, {"measurement": "Ticagrelor maximum concentration, Mean ± SD", "setting": "[3]; [12]", "result": "699 ± 257", "unit": "ng/mL"}, {"measurement": "Ticagrelor maximum concentration, Median (Q1–Q3)", "setting": "[3]; [12]", "result": "680 (514–800) ng/mL"}, {"measurement": "Ticagrelor plasma concentration, Mean ± SD", "setting": "[3]; baseline", "result": 0, "unit": "ng/mL"}, {"measurement": "Ticagrelor plasma concentration, Median (Q1–Q3)", "setting": "[3]; baseline", "result": 0, "unit": "ng/mL"}, {"measurement": "AUC", "setting": "[3]; human, plasma, oral, 180 mg, Mean ± SD", "result": 2310, "unit": "ng·h/mL"}, {"measurement": "AUC", "setting": "[3]; human, plasma, oral, 180 mg, Median (Q1–Q3)", "result": 2070, "unit": "ng·h/mL"}, {"measurement": "concentration at 15 min", "setting": "[3]; [13]", "result": "20 ± 29", "unit": "ng/mL"}, {"measurement": "concentration at 30 min", "setting": "[3]; [13]", "result": "171 ± 237", "unit": "ng/mL"}, {"measurement": "concentration at 45 min", "setting": "[3]; [13]", "result": "329 ± 353", "unit": "ng/mL"}, {"measurement": "concentration at 60 min", "setting": "[3]; [13]", "result": "464 ± 379", "unit": "ng/mL"}, {"measurement": "concentration at 120 min", "setting": "[3]; [13]", "result": "533 ± 243", "unit": "ng/mL"}, {"measurement": "concentration at 240 min", "setting": "[3]; [13]", "result": "404 ± 136", "unit": "ng/mL"}, {"measurement": "concentration at 360 min", "setting": "[3]; [13]", "result": "291 ± 94", "unit": "ng/mL"}, {"measurement": "concentration at 15 min", "setting": "[3]; [14]", "result": 13, "unit": "ng/mL"}, {"measurement": "concentration at 30 min", "setting": "[3]; [14]", "result": 69, "unit": "ng/mL"}, {"measurement": "concentration at 45 min", "setting": "[3]; [14]", "result": 210, "unit": "ng/mL"}, {"measurement": "concentration at 60 min", "setting": "[3]; [14]", "result": 316, "unit": "ng/mL"}, {"measurement": "concentration at 120 min", "setting": "[3]; [14]", "result": 569, "unit": "ng/mL"}, {"measurement": "concentration at 180 min", "setting": "[3]; human, plasma, oral, 180 mg, Ticagrelor plasma concentration, Median (Q1–Q3), 180 min post ticagrelor LD 180 mg", "result": 453, "unit": "ng/mL"}, {"measurement": "concentration at 240 min", "setting": "[3]; [14]", "result": 402, "unit": "ng/mL"}, {"measurement": "concentration at 360 min", "setting": "[3]; [14]", "result": 290, "unit": "ng/mL"}]}, {"molecule": "CCOCC", "note": "[diethyl ether]", "values": [{"measurement": "ADP-induced canine platelet aggregation", "setting": "[2]", "result": "significant reduction"}]}]}
